{
  "source": "patent US9522198B2",
  "about": "“Methods and compositions related to targeting tumors and wounds” (Sanford-Burnham Medical Research Institute, priority 2006, dated 2016)",
  "key": {"[1]": {"tested_on": "fibronectin", "conditions": "reported, Akerman, Pilch et al. 2005; cited from earlier work"}, "[2]": {"target": "T1, fibrinogen (Homo sapiens, UniProt P02671+P02675+P02679)", "T1 sequence (P02671 20-629 limits assumed)": "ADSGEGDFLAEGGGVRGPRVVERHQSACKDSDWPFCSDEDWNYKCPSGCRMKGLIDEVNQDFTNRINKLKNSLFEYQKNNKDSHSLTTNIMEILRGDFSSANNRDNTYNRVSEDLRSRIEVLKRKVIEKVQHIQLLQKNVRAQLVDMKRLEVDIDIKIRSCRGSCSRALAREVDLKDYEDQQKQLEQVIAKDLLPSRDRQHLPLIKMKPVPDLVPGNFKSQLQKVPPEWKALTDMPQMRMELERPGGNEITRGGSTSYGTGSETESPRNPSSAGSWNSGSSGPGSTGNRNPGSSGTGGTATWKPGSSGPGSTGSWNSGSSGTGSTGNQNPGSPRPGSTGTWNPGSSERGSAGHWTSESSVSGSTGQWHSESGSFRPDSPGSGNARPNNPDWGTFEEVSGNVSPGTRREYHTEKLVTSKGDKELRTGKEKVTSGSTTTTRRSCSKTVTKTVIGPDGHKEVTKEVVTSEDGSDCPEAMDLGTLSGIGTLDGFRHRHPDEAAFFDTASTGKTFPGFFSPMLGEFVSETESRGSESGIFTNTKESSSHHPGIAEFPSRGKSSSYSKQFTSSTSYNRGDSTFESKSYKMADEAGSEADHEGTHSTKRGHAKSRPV", "T1 sequence (P02675 31-491)": "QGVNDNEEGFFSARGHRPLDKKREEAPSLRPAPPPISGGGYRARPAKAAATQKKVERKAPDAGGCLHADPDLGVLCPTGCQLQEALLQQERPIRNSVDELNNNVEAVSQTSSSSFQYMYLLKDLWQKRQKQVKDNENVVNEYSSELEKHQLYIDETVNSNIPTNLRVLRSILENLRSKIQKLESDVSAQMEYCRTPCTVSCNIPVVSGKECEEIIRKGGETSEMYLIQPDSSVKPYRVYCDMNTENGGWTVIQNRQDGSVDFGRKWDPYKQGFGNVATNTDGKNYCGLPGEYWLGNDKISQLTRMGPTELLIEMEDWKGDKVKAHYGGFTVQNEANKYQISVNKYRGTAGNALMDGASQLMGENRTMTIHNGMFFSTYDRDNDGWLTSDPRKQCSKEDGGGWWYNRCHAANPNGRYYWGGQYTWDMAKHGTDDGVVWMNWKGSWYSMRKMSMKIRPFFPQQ", "T1 sequence (P02679 27-453)": "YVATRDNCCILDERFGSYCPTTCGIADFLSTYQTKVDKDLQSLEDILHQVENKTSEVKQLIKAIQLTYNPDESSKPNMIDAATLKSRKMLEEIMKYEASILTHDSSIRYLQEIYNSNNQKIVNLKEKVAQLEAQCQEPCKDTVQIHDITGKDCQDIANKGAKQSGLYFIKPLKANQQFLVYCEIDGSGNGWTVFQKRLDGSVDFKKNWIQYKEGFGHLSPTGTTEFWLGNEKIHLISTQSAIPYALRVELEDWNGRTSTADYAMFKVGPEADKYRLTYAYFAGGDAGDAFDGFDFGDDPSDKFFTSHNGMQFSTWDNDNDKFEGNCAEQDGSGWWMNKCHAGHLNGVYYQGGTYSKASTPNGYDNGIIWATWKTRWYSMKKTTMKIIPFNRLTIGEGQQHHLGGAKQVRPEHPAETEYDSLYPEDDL", "conditions": "reported, Akerman, Pilch et al. 2005; cited from earlier work"}, "[3]": {"tested_on": "orthotopic MDA-MB-435 xenograft tumors", "assay": "Tumor homing of i.v. injected fluorescein-conjugated peptides, MDA-MB-435 xenografts", "format": "in vivo, mouse", "from_the_text": "To determine whether the CLT peptides would recognize clotted plasma proteins in vivo, the peptides were synthesized as fluorescein conjugates and imaged their accumulation in tumors. Mice bearing orthotopic MDA-MB-435 xenograft tumors were intravenously injected with fluorescein-conjugated CLT1 (n=6), CLT2 (n=4), or a control peptide (n=4) with the sequence KAREC (SEQ ID NO: 5).\nB16F1 mouse melanoma, Lewis lung carcinoma, C8161 human melanoma, MDA-MB-435 human breast cancer, and PPC-1 human prostate cancer cells (American Type Culture Collection) were maintained in RPMI or DMEM supplemented with 10% FCS. Human tumor cells (1×10^6) were injected into the mammary fat pad or the flank of nude BALB/c nu/nu mice to induce tumors. MMTV PyMT mice were provided by Dr. Robert Oshima (Burnham Institute for Medical Research, La Jolla, Calif.). The MMTV PyMT mice develop breast cancer under the influence of a polyoma middle T antigen driven by the mouse tumor virus promoter (Siegel, P. M., Ryan, E. D., Cardiff, R. D., Muller W. J. (1999) EMBO J., 18, 2149-64). B16F1 tumors induced by injecting 1×10^6 cells subcutaneously were grown in the flank of fibrinogen knock-out mice (Suh, T. T., Holmback, K., Jensen, N. J., Daugherty, C. C., Small, K., Simon, D. I., Potter, S., & Degen, J. L. (1995) Genes Dev. 9, 2020-2033), and of transgenic plasma fibronectin-deficient C57BL/6-Fn(f1/f1) Mx-Cre^+ (Sakai, T., Johnson, K. J., Murozono, M., Sakai, K., Magnuson, M. A., Wieloch, T., Cronberg, T., Isshiki, A., Erickson, H. P., & Fassler R. (2001) Nat. Med. 7, 324-30) and their wild type littermates. Deletion of the fibronectin gene in the liver was induced by poly(I):poly(C) (Yi, M., Sakai, T., Fassler, R., & Ruoslahti, E. (2003) Proc. Natl. Acad. Sci. USA. 100, 11435-11438). Frozen human tissues from clinical breast cancers were provided by the Western Division of the NCI Cooperative Human Tissue Network (Vanderbilt University Medical Center, Nashville, Tenn.).\nPeptides were synthesized and conjugated to fluorescein isothiocyanate as described (Laakonen et al. PNAS 2004), and cyclized by exposure to air.\nImaging under a blue light, and examination of the distribution of fluorescein-conjugated peptides after tail vein injection have been described (Hoffman, R. M. (2005) Nature Reviews Cancer 5, 796-806; Laakkonen, P., Akerman, M. E., Biliran, H., Yang, M., Ferrer, F., Karpanen, T., Hoffman, R. M., & Ruoslahti E. (2004) Proc. Natl. Acad. Sci. USA 101, 9381-6).\nThe imaging methods are briefly described as follows: A Leica fluorescence stereomicroscope, model LZ12, equipped with a 50-W mercury lamp, was used for high-magnification imaging. Selective excitation of GFP was produced through a D425y60 band-pass filter and 470 DCXR dichroic mirror. Emitted fluorescence was collected through a long-pass filter GG475 (Chroma Technology, Brattleboro, Vt.) on a Hamamatsu C5810 3-chip cooled color charge-coupled device camera (Hamamatsu Photonics Systems, Bridgewater, N.J.). Images were processed for contrast and brightness and analyzed with the use of IMAGE PRO PLUS 3.1 software (Media Cybernetics, Silver Springs, Md.). Images of 1,024×724 pixels were captured directly on an IBM PC or continuously through video output on a high-resolution Sony VCR model SLV-R1000 (Sony, Tokyo). Imaging at lower magnification that visualized the entire animal was carried out in a light box illuminated by blue light fiber optics (Lightools Research, Encinitas, Calif.) and imaged by using the thermoelectrically cooled color charge-coupled device camera, as described above (Yang, M., Baranov, E., Jiang, P., Sun, F-X., Li, X-M., Li, L., Hasegawa, S., Bouvet, M., Al-Tuwaijri, M., Chishima, T., et al (2000) Proc. Natl. Acad. Sci. USA 97, 1206-11).\nThe mice were perfused through the heart 3 hours after the peptide injection and tissues removed for examination. […]"}, "[4]": {"tested_on": "mouse femoral artery", "assay": "Homing to wire-injured femoral artery", "format": "in vivo", "protocol": "(§1) The wire injury of the mouse femoral artery was induced as previously described (Komatsu, M. & Ruoslahti, E. (2005) Nat Med. (2005) 11:1346-1350). Thirty minutes after the wire injury, 250 μg of fluorescein-conjugated peptides were injected i.v. Muscle injuries were induced in mice by applying a crush injury to the quadriceps muscle, and 500 μg fluorescein-conjugated peptides were injected i.v. 48 hours later. Skin incisions were studied similarly. The mice were perfused through the heart 4 hours after the peptide injection, and tissues were excised, fixed in 4% paraformaldehyde, and embedded in OCT."}, "[5]": {"tested_on": "quadriceps muscle", "assay": "Homing to muscle crush injury", "format": "in vivo, mouse", "protocol": "as §1"}, "[6]": {"tested_on": "skin", "assay": "Homing to skin incision", "format": "in vivo, mouse", "protocol": "as §1"}, "[7]": {"tested_on": "human umbilical venous endothelial cells (HUVECs)", "format": "cell-based", "conditions": "HUVECs", "from_the_text": "CLT1 contains a sequence of three consecutive hydrophobic residues, LII (leucine-isoleucine-isoleucine). This motif is very similar to the VII sequence (V, valine) which causes proteins to form large insoluble aggregates (Esteras-Chopo et al. 2005). […] The ability of CLT1 to aggregate proteins correlates with its cytotoxicity for human umbilical venous endothelial cells (HUVECs)."}, "[8]": {"tested_on": "mitochondrial membranes", "conditions": "concentration of 10 μM; cited from earlier work"}, "[9]": {"conditions": "500 μg fluorescein-conjugated peptide i.v., 3 h"}},
  "note": "Entries after “also recorded” stand apart in the source; their conditions may differ. Ends that are not written are not given here.",
  "data": [
    {"substance": "Anginex", "values": [
      {"measurement": "aggregate formation in presence of fibronectin", "setting": "[1]", "result": "form aggregates"},
      {"measurement": "aggregate formation in presence of fibrinogen", "setting": "[2]", "result": "form aggregates"}
    ]},
    {"substance": "CNAGESSKNC (also: cyclic, ring type not given here, fluorescein conjugate, site not given here) [CLT2, cyclic decapeptide from phage library screened on plasma clots; tested as fluorescein conjugate]", "values": [
      {"measurement": "fluorescence in control / healthy organs", "setting": "[3]; [9]", "result": "not in control organs"},
      {"measurement": "fluorescence in tumors, whole tissues under blue light", "setting": "[3]; [9]", "result": "intense fluorescence; also recorded: strong fluorescence"},
      {"measurement": "histological distribution of peptide fluorescence within the tumor", "setting": "[3]; fluorescein-conjugated peptide i.v., 3 h, 400×", "result": "distributed in a network pattern"},
      {"measurement": "tumor homing / fluorescence on co-injection with unlabeled CLT2", "setting": "[3]; unlabeled CLT2 in 5 fold excess", "result": "strongly reduced"},
      {"measurement": "homing to normal (intact) femoral artery", "setting": "[4]; uninjured", "result": "not to a normal femoral artery"},
      {"measurement": "homing to injured femoral artery", "setting": "[4]; wire injury 30 min earlier, 250 μg i.v.", "result": "homes"},
      {"measurement": "homing to muscle crush injury", "setting": "[5]; injury 48 hours earlier, 500 μg i.v.", "result": "accumulate"},
      {"measurement": "homing to normal muscle", "setting": "[5]; uninjured", "result": "negative"},
      {"measurement": "homing to skin incision", "setting": "[6]; incision 48 hours earlier", "result": "accumulate"},
      {"measurement": "homing to normal skin", "setting": "[6]; uninjured", "result": "negative"},
      {"measurement": "cytotoxicity for endothelial cells", "setting": "[7]", "result": "nor cytotoxic"}
    ]},
    {"substance": "D(KLAKLAK)2 (KLAKLAKKLAKLAK; D-amino acids) [antimicrobial peptide]", "values": [
      {"measurement": "mitochondrial swelling", "setting": "[8]", "result": "marked mitochondrial swelling"}
    ]},
    {"substance": "KAREC (also: fluorescein conjugate, site not given here) [reference compound]", "values": [
      {"measurement": "fluorescence in tumors, whole tissues under blue light", "setting": "[3]; [9]", "result": "essentially no fluorescence"}
    ]}
  ]
}
